Measurements published in patent publication US12419862B2, “Use of a cathepsin s inhibitor against the formation of anti-drug antibodies” (Hoffmann-La Roche Inc., priority 2018, dated 2025).
“Also recorded” adds a separate entry of the source.

What was measured:
[1] = system: CEA-specific IgG response; experiment: ADA against CEA-IL2v in wild-type mice, ELISA (Example 1, 28 days); assay type: in vivo, C57BL/6 wild type mice; settings: 40 mg/kg/day via food admix from one week before first immunization until day 28, vs vehicle
Protocol: 15-week-old mice C57BL/6 wild type and C57BL/6-Tg (hIgG1,k,l) were purchased from Taconic (Denmark) and housed at the animal facilities under a 12 hour (h) light 12 h dark cycle with cycles of air ventilation and free access to water and food. 7×10 μg of CEA-112v or 7×10 μg of Humira (Adalimumab, Abbvie Germany GmbH) were injected respectively at day 0, 4, 7, 11, 14, 18 and 21 subcutaneously in the right flank or the left flank alternatively. The dosage of the cathepsin S inhibitor consumption was 40 mg/kg/day. The food admix (Ssniff Spezialdiäten, Germany) was given daily one day before the first immunization until day 28 for the mice immunized with Humira. The food admix was given daily one week before the first immunization until day 28 for the mice immunized with CEA-IL2v (R06895882). At day −12, 7, 14 and 28 blood samples were taken.
(§1) Nunc Maxisorp flat-bottom 96 well ELISA plates were coated with 100 μl per well of Humira or CEA-PGLALA (3.42 mg/ml, ID 8037) respectively at 5 μg/mL in NaHCO3100 mM buffer overnight at +4° C. The next day the ELISA plates were washed 3 times with PBS+0.05% Tween. […] 100 μl of substrate P-nitrophenyl phosphate ready to use (Life Technologies Cat no 002212) were added per well and after 10 min incubation at room temperature, the OD at 405 nm was read as an end-point measurement with a Versamax ELISA reader.

[2] = system: IgG response to murine surrogate PD-L1; experiment: ADA against murine surrogate PD-L1 in wild-type mice, ELISA (Example 7); assay type: in vivo, C57BL/6 mice; settings: 40 mg/kg/day via food admix from one week before first immunization until day 23
Protocol: 10-week-old female mice C57BL/6 were purchased from Charles River Laboratories (Germany) and housed at the animal facilities in room with air-conditioned under a 12 hours light/dark cycle in macrolon boxes with enriched environment and free access to water and food. 10 mg/kg of muPD-L1 (P1AE4930-001) were injected at day 1, 8 and 15 intravenously to the group 4 (n=10 mice) and at day 1, 8, 15 and 22 to the group 5 (n=10 mice) respectively. The dosage of (2S,4R)-4-[4-(1-methyl-1H-pyrazol-4-yl)-2-trifluoromethyl-benzenesulfonyl]-1-(1-trifluoromethyl-cyclopropanecarbonyl)-pyrrolidine-2-carboxylic acid (1-cyano-cyclopropyl)-amide consumption was 40 mg/kg/day. (2S,4R)-4-[4-(1-methyl-1H-pyrazol-4-yl)-2-trifluoromethyl-benzenesulfonyl]-1-(1-trifluoromethyl-cyclopropanecarbonyl)-pyrrolidine-2-carboxylic acid (1-cyano-cyclopropyl)-amide was given via food admix (Ssniff Spezialdiäten, Germany) daily from one week before the first muPD-L1 immunization until day 23 to the group 5. […]
as §1, with “anti muPD-L1 (P1AE4930-001)” for “Humira or CEA-PGLALA (3.42 mg/ml, ID 8037) respectively”, “C.” for “C. The next day the ELISA plates were washed 3 times with PBS+0.05% Tween.”, “Technologies,” for “Technologies”

Cn1cc(-c2ccc(S(=O)(=O)[C@@H]3C[C@@H](C(=O)NC4(C#N)CC4)N(C(=O)C4(C(F)(F)F)CC4)C3)c(C(F)(F)F)c2)cn1 [cathepsin S inhibitor, (2S,4R)-4-[4-(1-methyl-1H-pyrazol-4-yl)-2-trifluoromethyl-benzenesulfonyl]-1-(1-trifluoromethyl-cyclopropanecarbonyl)-pyrrolidine-2-carboxylic acid (1-cyano-cyclopropyl)-amide]
ADA to CEA-IL2v (CEA-specific IgG) [1]: reduces its levels in wild-type mice; also recorded: only partial reduction of ADA
ADA to mPD-L1 [2]: significantly reduced ADA to mPD-L1
